In patent US5275708A, “Cetyltrimethylammonium bromide gel electrophoresis” (Thomas Jefferson University, priority 1992, dated 1994):

Key:
[1] = system: NAD dependent isocitrate dehydrogenase (ICD); test: NAD dependent isocitrate dehydrogenase activity in detergent extracts; format: biochemical, human; conditions: 0.5% detergent; JEG-3 cell extracts; compared to SDS; relative to Tx-100 (100%)
Procedure: (§1) FIG. 4 is a graphical depiction of the effect of detergent solubilization on enzyme activities. Enzyme activities were determined in the presence of 0.5% Tx-100, SDS, or CTAB as described in the Examples. The activities were expressed relative to that in Tx-100 solubilized samples (100%). […] Alkaline phosphatase and horseradish peroxidase were purchased from Sigma. Ca^2+ -ATPase activity was measured in microsomes prepared from day-17 chick chorioallantoic membrane, Oakley et al., Anal. Biochem., 105:361-363 (1980). NAD dependent isocitrate dehydrogenase (ICD) and lactate dehydrogenase (LDH) activities were measured in detergent extracts of JEG-3 human choriocarcinoma cells
(§2) Ca^2+ -ATPase activity was assayed by the method of Tuan and Knowles, J. Biol. Chem., 259:2754-2763 (1984), without further modification. Alkaline phosphatase, lactate dehydrogenase, and isocitrate dehydrogenase activities were measured using protocols supplied with their respective diagnostic kits.

[2] = system: horseradish peroxidase; test: Horseradish peroxidase activity after detergent solubilization; format: biochemical; conditions: 0.5% detergent; compared to SDS; relative to Tx-100 (100%)
Procedure: Spectrophotometric Assays. Peroxidase activity was assayed at room temperature using a solution of 0.5 mg/ml diaminobenzidine in 10 mM sodium phosphate buffered 0.9% saline (pH 7.2), containing 0.1% hydrogen peroxide. Reactions were allowed to proceed for 5 minutes, and then were stopped by the addition of 10 mM sodium sulfide to 100 μM. Absorbance at 480 nm was used to determine the degree of product formation.

[3] = system: Alkaline phosphatase; test: Alkaline phosphatase activity after detergent solubilization; format: biochemical; conditions: 0.5% detergent; compared to SDS; relative to Tx-100 (100%)
Procedure: as §1, §2

[4] = system: Ca2+-ATPase; test: Ca2+-ATPase activity in detergent-solubilized chorioallantoic membrane microsomes; format: biochemical; conditions: 0.5% detergent; day-17 chick CAM microsomes; relative to Tx-100 (100%)
Procedure: as §1, §2

[5] = system: lactate dehydrogenase (LDH); test: Lactate dehydrogenase activity in detergent extracts; format: biochemical, human; conditions: 0.5% detergent; JEG-3 cell extracts; relative to Tx-100 (100%)
Procedure: as §1, §2

[6] = system: enzyme activities of various proteins; test: Enzyme activities of detergent-treated samples after heating; format: biochemical; conditions: detergent treated samples heated to 100° C. in the presence of β-mercaptoethanol
Excerpt: Native protein activity was retained after solubilization in CTAB. Enzyme activities of various proteins in CTAB with their activities when solubilized in SDS, or Tx-100 were compared. […] The relative effect of detergent solubilization on native activity varied from protein to protein and, therefore, must be determined empirically.

[7] = α-NH2 group; cited from earlier work

| SMILES | Enzyme activity (ICD) in detergent [1] | Enzyme activity (HRP) in detergent [2] | Enzyme activity (AP) in detergent [3] | Enzyme activity (Ca2+-ATPase) in detergent [4] | Enzyme activity (LDH) in detergent [5] | Enzyme activity after heating [6] | pKa [7] |
| --- | --- | --- | --- | --- | --- | --- | --- |
| CCCCCCCCCCCCCCCC[N+](C)(C)C.[Br-] [CTAB, Cetyltrimethylammonium bromide] | relatively high levels of enzyme activity | relatively high levels of enzyme activity | relatively high levels of enzyme activity | significantly affected | lack of activity | lost all activity | – |
| CCCCCCCCCCCCOS(=O)(=O)[O-].[Na+] [SDS, sodium dodecylsulfate] | – | – | – | – | – | lost all activity | – |
| NCCCC[C@H](N)C(=O)O [lysine] | – | – | – | – | – | – | ≈ 9.06 |
